Reference: publication PMC7966987, “Insights into the catalytic properties of the mitochondrial rhomboid protease PARL” (The Journal of Biological Chemistry, 2021)

What was measured:
Type in all cases: biochemical
[1] = target: T1, human PARLΔ55 (Homo sapiens, UniProt Q9H300); test: IQ-peptide substrate cleavage kinetics, full-length PARLΔ55 in detergent; settings: for Km / kcat (turnover rate) / kcat/KM (catalytic efficiency): PARLΔ55 0.8 μM in 0.1% DDM with CL, 50 mM Tris-HCl pH 7.0, 150 mM NaCl, 10% glycerol, 5% DMSO, 37 °C, fluorescence, mean ± SEM
T1 construct: to generate full-length (FL) starting at residue 55 or the β-cleavage form truncated at residue 77; GFP-hexahistidine (behind a TEV cleavage site) (C, cleaved yes); made in house; host or cells: Pichia pastoris
T1 sequence (Q9H300 56-379): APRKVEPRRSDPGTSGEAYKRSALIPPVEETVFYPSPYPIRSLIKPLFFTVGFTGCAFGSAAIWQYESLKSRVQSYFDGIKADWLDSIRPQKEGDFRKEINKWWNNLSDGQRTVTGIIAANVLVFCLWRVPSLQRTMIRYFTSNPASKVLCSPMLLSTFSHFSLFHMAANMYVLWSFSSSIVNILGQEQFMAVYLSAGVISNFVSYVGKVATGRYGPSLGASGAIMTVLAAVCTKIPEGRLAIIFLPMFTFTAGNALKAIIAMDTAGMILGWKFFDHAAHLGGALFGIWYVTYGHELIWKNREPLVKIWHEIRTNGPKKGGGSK
Excerpt: (§1) To further evaluate the cleavage of other known substrates of PARL, we adopted a more facile system to examine cleavage of multiple substrates and generated internally quenched (IQ) peptide substrates ([25], [36], [37], [38]) based on the amino acids flanking the PARL cleavage sites of PINK1 ([39]), PGAM5 ([8]), and Smac/Diablo ([11]). […] The assay allowed us to determine the catalytic parameters for the three primary PARL substrates and examine the substrate specificity (Fig. 2, Tables S2–S4).
(§2) Assays with FRET-PINK1^70–134 were conducted as previously described ([26]). For EDANS/Dabcyl 10-mer IQ peptides (PINK1, PGAM5, Smac/Diablo), lyophilized peptides were initially dissolved in DMSO to obtain a stock solution. The IQ peptide substrates in a concentration range of 0.1–70 μM were incubated with activity assay buffer (50 mM Tris-HCl pH 7.0, 150 mM NaCl, 10% glycerol, 0.1% DDM) in a 384-well black-bottomed plate at 37 °C for 30 min in a multiwell plate reader (SynergyMx, BioTek). For all concentrations of IQ peptide, the DMSO was kept constant at 5%. Following preincubation, PARL was added to a final concentration of 0.8 μM to initiate the cleavage reaction. Fluorescence readings were taken every 3 min over a 3 h time course at ƛex = 336 nm and ƛem = 490 nm. The initial velocity was determined from the fluorescence readings over the time course. For each substrate concentration, a no-enzyme control was subtracted to eliminate background fluorescence changes not related to substrate cleavage. Relative fluorescence units were converted to concentration (μM) by determining the maximum change in fluorescence observed for each substrate concentration when fully digested. GraphPad Prism software was used for Michaelis–Menten analysis of kinetic curves. All kinetic data were obtained using at least three biological replicates (different enzyme preparations) with technical duplicates for each experiment. For kinetic measurements in detergent with all three substrates, the activity assays were repeated at least five times. In addition, after each protease purification, the quality control of purified PARL was controlled by measuring its enzymatic activity. Minimum of three experimental replicates with two technical replicates were used for data analysis.

[2] = target: T2, PARLΔ77 (Homo sapiens, UniProt Q9H300); test: IQ-peptide substrate cleavage kinetics, β-cleavage PARLΔ77 in detergent; settings: PARLΔ77 0.8 μM in 0.1% DDM with CL, 50 mM Tris-HCl pH 7.0, 150 mM NaCl, 10% glycerol, 5% DMSO, 37 °C, fluorescence; mean ± SEM
T2 construct: GFP-hexahistidine (behind a TEV cleavage site) (C, cleaved yes); made in house; host or cells: Pichia pastoris
T2 sequence (Q9H300 78-379): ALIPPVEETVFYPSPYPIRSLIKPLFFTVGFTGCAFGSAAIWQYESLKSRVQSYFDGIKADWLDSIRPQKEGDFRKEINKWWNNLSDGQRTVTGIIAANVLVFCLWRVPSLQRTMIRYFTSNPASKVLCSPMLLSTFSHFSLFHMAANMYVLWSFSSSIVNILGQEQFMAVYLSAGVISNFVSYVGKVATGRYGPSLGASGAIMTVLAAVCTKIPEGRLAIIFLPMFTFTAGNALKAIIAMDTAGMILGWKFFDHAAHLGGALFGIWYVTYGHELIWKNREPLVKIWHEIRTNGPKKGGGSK
Excerpt: as §1, §2

[3] = system: human PARLΔ77; test: as above; settings: for fold change Km/kcat, PARLΔ77/PARLΔ55 / fold change kcat, PARLΔ77/PARLΔ55: PARL in DDM; for turnover rate with PARLΔ77 compared with PARLΔ55 / ranking of substrate cleavage: in detergent; for ranking of substrate cleavage: PARLΔ55 and PARLΔ77, by kcat or kcat/KM
Excerpt: as §1, §2

[4] = target: T1, human PARLΔ55; test: IQ-peptide substrate cleavage kinetics, PARLΔ55 in proteoliposomes; settings: PARLΔ55 in PLs (E. coli polar lipids), 50 mM Tris-HCl pH 7.0, 150 mM NaCl, 10% glycerol, no DDM, 37 °C; mean ± SEM
Excerpt: To assess the activity of recombinant PARL toward known substrates in a lipid bilayer, full-length and β-truncated PARL were reconstituted in proteoliposomes (PLs) using Escherichia coli lipids that closely resemble the composition of the IMM ([31]). We determined that the EDANS/Dabcyl - FRET tags prevented incorporation of the substrates into PL; however, the substrate could still be cleaved since the active site is proposed to be near the lipid/water interface ([40], [41]) analogous to bacterial rhomboid proteases (Fig. 1). To calculate the specific activity of the protease, we quantified the fraction of PARL in the PLs with an outward facing active site using a membrane […] activity-based TAMRA-labeled fluorophosphonate probe ([42]). […] These values were used to calculate specific activity of the PARL protease. Next, we compared cleavage of three IQ-peptide substrates by reconstituted full-length mature PARLΔ55 and the β-truncated form, PARLΔ77 (Fig. 3, Tables S5 and S6).
as §2
E. coli polar lipids (Avanti), 400 μg in chloroform, were dried under nitrogen stream in a glass tube to yield a thin film of lipid. The tube was incubated overnight in a desiccator to completely remove all traces of solvent. In total, 50 μl of water and DDM detergent was added to the lipid film for resuspension at room temperature for 10 min, followed by the addition of purified PARL (400 μg) in 50 mM Tris-HCl, pH 8.0, 150 mM NaCl, 20% glycerol, 0.1% DDM, to yield the final weight ratio of 1 PARL:1 lipid:2 detergent. The detergent was slowly removed by the addition of SM2 Biobeads (Bio-Rad) while stirring on ice for 6 h to allow for the generation of proteoliposomes (PL); the process was controlled by the regimen of Biobead addition. To purify the PL, 50%:20% sucrose density gradient ultracentrifugation was used. A TAMRA probe (ThermoFisher) was used to determine the orientation of reconstituted PARL, which specifically and covalently labels serine residues of an enzymatically active serine protease. In total, 2 μM of TAMRA probe was added to PL samples and incubated for 1 h, allowing the TAMRA probe to label only the outward-facing accessible active sites. […]

Row | Substance | substrate turnover with PARLΔ55 compared with PARLΔ77 [1] | Km [1] [µM] | kcat (turnover rate) [1] [s⁻¹] | kcat/KM (catalytic efficiency) [1] [M⁻¹ s⁻¹] | Km [2] [µM] | kcat (turnover rate) [2] [s⁻¹] | kcat/KM (catalytic efficiency) [2] [M⁻¹ s⁻¹] | fold change Km/kcat, PARLΔ77/PARLΔ55 [3] [fold] | fold change kcat, PARLΔ77/PARLΔ55 [3] [fold] | turnover rate with PARLΔ77 compared with PARLΔ55 [3] | Km [4] [µM] | kcat (turnover rate) [4] [s⁻¹] | kcat/KM (catalytic efficiency) [4] [M⁻¹ s⁻¹] | ranking of substrate cleavage [3] | turnover rate with PARLΔ77 compared with PARLΔ55 ([3]; listed as IQ-Smac/Diablo) | turnover rate with PARLΔ77 compared with PARLΔ55 ([3]; listed as Smac/Diablo)
1 | (DABCYL)-AVFLAFGLGL-Glu(EDANS) [IQ-PINK1^99–108, internally quenched DABCYL/EDANS peptide substrate based on PINK1 PARL cleavage site] | significantly lower substrate turnover | 1.9 ± 0.4 | 0.000117 ± 8.3e-06 | 61.1 ± 22 | 3.3 ± 0.5 | 0.000361 ± 2.8e-05 | 110 ± 28 | 2 | 3 | increased | 13 ± 2 | 0.0025 ± 0.00017 | 190 ± 28 |  |  | 
2 | (DABCYL)-AVFLSAVAVG-Glu(EDANS) [IQ-PGAM5^20–29, internally quenched DABCYL/EDANS peptide substrate based on PGAM5 PARL cleavage site] | significantly lower substrate turnover | 0.47 ± 0.07 | 0.000128 ± 5.6e-06 | 278 ± 83 | 1.6 ± 0.2 | 0.000272 ± 1.1e-05 | 170 ± 28 | 0.6 | 2 | increased | 1.3 ± 0.2 | 0.00133 ± 0.000333 | 1000 ± 170 | most efficiently cleaved |  | 
3 | (DABCYL)-GVT LCAVPIA-Glu(EDANS) [IQ-Smac/Diablo^51–60, internally quenched DABCYL/EDANS peptide substrate based on Smac/Diablo PARL cleavage site] |  | 6 ± 1 | 0.000361 ± 2.8e-05 | 83 ± 28 | 5 ± 1 | 0.000333 ± 2.8e-05 | 83 ± 28 | 1 | 1 |  | 3.9 ± 0.7 | 0.00153 ± 8.3e-05 | 389 ± 83 | fastest cleaved | no significant difference | remained unchanged
